Measured values from patent US20090105301A1, “9A-SUBSTITUTED AZALIDES FOR THE TREATMENT OF MALARIA” (priority 2006, published 2009).
Values after ≈ are worked out from the molar mass of the structure shown. Counter-ions that a name gives are not always drawn.

How the values were obtained:
Assay type in all cases: cell-based, Plasmodium falciparum
[1] = system: P. falciparum D6 (CDC/Sierra Leone I, D-6); test: In vitro screening protocol I, [3H]-hypoxanthine incorporation, D6; conditions: In vitro screening protocol I, P. falciparum D6; for IC50: Plasmodium falciparum, read-out: IC50 D6
Excerpt: (§1) Agents Chemother. 27 (4) (1985) 525-530). The system was limited to the assessment of the intrinsic activity against the erythrocytic asexual life cycle (blood schizontocides). Two Plasmodium falciparum clones from CDC/Indochina III (W-2) and CDC/Sierra Leone I (D-6) (Oduola A M, Weatherly N F, Bowdre J H, Desjardins R E. Plasmodium falciparum: cloning by single-erythrocyte micromanipulation and heterogeneity in vitro. Exp Parasitol. 66 (1) (1988) 86-95) were used for all assays. TM91C235, a multiple drug resistant isolate from Thailand (Antimicrob. Agents Chemother. 46 (8) (2002) 2627 and Antimicrob. Agents Chemother. 43 (3) (1999) 598-602), was used for the prescreening assay. W-2 is resistant to chloroquine, quinine, and pyrimethamine and susceptible to mefloquine. D-6 tends to be more resistant to mefloquine and susceptible to chloroquine, quinine, and pyrimethamine. All documents cited in this paragraph are incorporated by reference in their entirety.
(§2) All parasites were maintained in continuous long term cultures in RPMI-1640 medium supplemented with 6% washed human A positive (A+)(erythrocytes, 25 mM Hepes, […], and 10% heat inactivated A+ human plasma or ALBUMAX® (lipid-rich bovine serum albumin; Invitrogen, Carlsbad, Calif.). All cultures and assays were conducted at 37° C. under an atmosphere of 5% CO2 and 5% O2, with a balance of N2.
(§3) The prescreening assay uses TM91C235 diluted at a 0.4% parasitemia in a 1% hematocrit in folic acid free and p-aminobenzoic acid free media RPMI-1640 and ALBUMAX®. […] The compound is further diluted in folate free (FF) culture medium with ALBUMAX® for the first initial starting concentration. The rest of the stock drug solution was kept at −70° C. The isolate was preexposed, in duplicate, at three concentrations (25,000 ng/ml, 2,500 ng/ml, and […]) of the test compound for 48 hr in a 96-well microtiter plate (MTP) using the BIOMEK® 2000 automated laboratory workstation. Each MTP contains chloroquine as control to assess the relative activity of the compound and to monitor the response of TM91C235.
(§4) After the preincubation, [^3H]-hypoxanthine was added to each well of the MTP. (The assay relies on the incorporation of radiolabeled hypoxanthine by the parasites, which indicates reproduction, and inhibition of isotope incorporation was attributed to activity of known or candidate antimalarial drugs). After 72 hours of total incubation time, the MTP were frozen to lyse the erythrocytes and parasites. The parasite DNA was recovered by harvesting the lysate onto glass-fiber filter plates using a Packard FilterMate™ Cell Harvester. The radioactivity was counted on a Packard TopCount™ microplate scintillation counter.
(§5) The serial dilution assay was conducted using the same assay conditions and stock solution of the compound used for the preliminary screen, described above. Both the D-6 and the W-2 clones were used. The compounds were diluted two-fold over 11 different concentration ranges with a starting concentration that was based on the preliminary screen. For each drug, the concentration response profile was determined and 50% inhibitory concentrations (IC50) were determined by using a non-linear, logistic dose response analysis program. […] For each assay, the IC50 for each clone was determined against the known antimalarials chloroquine and mefloquine. These control values established the compound's relative parasite susceptibility profile compared to known antimalarials. […]

P. falciparum TM91C235 = test: In vitro screening protocol I, [3H]-hypoxanthine incorporation, TM91C235; conditions: In vitro screening protocol I, P. falciparum TM91C235; for IC50: Plasmodium falciparum, read-out: IC50 TM91C235
Excerpt: as §1, §2, §3, §4, §5

[2] = system: P. falciparum W2 (CDC/Indochina III, W-2); test: In vitro screening protocol I, [3H]-hypoxanthine incorporation, W2; conditions: In vitro screening protocol I, P. falciparum W2; for IC50: Plasmodium falciparum, read-out: IC50 W2
Excerpt: as §1, §2, §3, §4, §5

Row | IC50 [1] | IC50 (P. falciparum TM91C235) | IC50 [2] | Structure (SMILES) | IC50 D6 [1] | IC50 TM91C235 (P. falciparum TM91C235) | IC50 W2 [2]
1 | 0.2 to 1 µg/mL | < 0.1 µg/mL | 0.2 to 1 µg/mL | CC[C@H]1OC(=O)[C@H](C)[C@@H](O[C@H]2C[C@@](C)(OC)[C@@H](O)[C@H](C)O2)[C@H](C)[C@@H](O[C@@H]2O[C@H](C)C[C@H](N(C)C)[C@H]2O)[C@](C)(O)C[C@@H](C)CN(CCCNC(=O)CCc2ccccc2)[C@H](C)[C@@H](O)[C@]1(C)O [Example 27, 9a-{3-[(3-Phenylpropanoyl)amino]propyl}-9a-aza-9-deoxo-9-dihydro-9a-homoerythromycin A Formiate Salt] |  |  | 
2 | 0.1 to 0.2 µg/mL (≈ 0.107 to 0.214 µM) | < 0.1 µg/mL | < 0.1 µg/mL | CC[C@H]1OC(=O)[C@H](C)[C@@H](O[C@H]2C[C@@](C)(OC)[C@@H](O)[C@H](C)O2)[C@H](C)[C@@H](O[C@@H]2O[C@H](C)C[C@H](N(C)C)[C@H]2O)[C@](C)(O)C[C@@H](C)CN(CCCNCc2ccc3ccccc3n2)[C@H](C)[C@@H](O)[C@]1(C)O [Example 1, 9a-{3-[(Quinolin-2-yl-methyl)amino]propyl}-9-deoxo-9-dihydro-9a-aza-9a-homoerythromycin A] |  |  | 
3 |  |  |  | CC[C@H]1OC(=O)[C@H](C)[C@@H](O[C@H]2C[C@@](C)(OC)[C@@H](O)[C@H](C)O2)[C@H](C)[C@@H](O[C@@H]2O[C@H](C)C[C@H](N(C)C)[C@H]2O)[C@](C)(O)C[C@@H](C)CN(CCCNCc2ccnc3ccccc23)[C@H](C)[C@@H](O)[C@]1(C)O [Example 14, 9a-{3-[(Quinolin-4-yl-methyl)amino]propyl}-9-deoxo-9-dihydro-9a-aza-9a-homoerythromycin A] | B (100 < X ≦ 200) | B (100 < X ≦ 200) | B (100 < X ≦ 200)
4 |  |  |  | CC[C@H]1OC(=O)[C@H](C)[C@@H](O)[C@H](C)[C@@H](O[C@@H]2O[C@H](C)C[C@H](N(C)C)[C@H]2O)[C@](C)(O)C[C@@H](C)CN(CCCNCc2cccc3ccccc23)[C@H](C)[C@@H](O)[C@]1(C)O [Example 9, 9a-{3-[(Naphtalen-1-yl-methyl)amino]propyl}-3-O-decladinosyl-9-deoxo-9-dihydro-9a-aza-9a-homoerythromycin A] | A (X ≦ 100) | A (X ≦ 100) | A (X ≦ 100)
5 | 0.1 to 0.2 µg/mL (≈ 0.104 to 0.208 µM) | < 0.1 µg/mL | < 0.1 µg/mL | CC[C@H]1OC(=O)[C@H](C)[C@@H](O[C@H]2C[C@@](C)(OC)[C@@H](O)[C@H](C)O2)[C@H](C)[C@@H](O[C@@H]2O[C@H](C)C[C@H](N(C)C)[C@H]2O)[C@](C)(O)C[C@@H](C)CN(CCC(=O)N[C@@H](C)c2cccc3ccccc23)[C@H](C)[C@@H](O)[C@]1(C)O [Example 42] |  |  | 
6 | 0.2 to 1 µg/mL | < 0.1 µg/mL | 0.1 to 0.2 µg/mL | CC[C@H]1OC(=O)[C@H](C)[C@@H](O[C@H]2C[C@@](C)(OC)[C@@H](O)[C@H](C)O2)[C@H](C)[C@@H](O[C@@H]2O[C@H](C)C[C@H](N(C)C)[C@H]2O)[C@](C)(O)C[C@@H](C)CN(CCCNC(=O)[C@H](C)c2ccc3cc(OC)ccc3c2)[C@H](C)[C@@H](O)[C@]1(C)O [Example 32, 9a-[3-({(2S)-2-[6-(methyloxy)-naphthalen-2-yl]propanoyl}amino)propyl]-9a-aza-9-deoxo-9-dihydro-9a-homoerythromycin A Formiate Salt] |  |  | 
7 | 0.1 to 0.2 µg/mL (≈ 0.131 to 0.263 µM) | 0.2 to 1 µg/mL (≈ 0.263 to 1.31 µM) | 0.1 to 0.2 µg/mL (≈ 0.131 to 0.263 µM) | CC[C@H]1OC(=O)[C@H](C)[C@@H](O)[C@H](C)[C@@H](O[C@@H]2O[C@H](C)C[C@H](N(C)C)[C@H]2O)[C@](C)(O)C[C@@H](C)CN(CCCNc2ccnc3ccccc23)[C@H](C)[C@@H](O)[C@]1(C)O [Example 24, 9a-[3-(Quinolin-4-yl-amino)propyl]-3-O-decladinosyl-9-deoxo-9-dihydro-9a-aza-9a-homoerythromycin A] |  |  | 
8 | 1 to 2.5 µg/mL (≈ 1.1 to 2.76 µM) | 0.2 to 1 µg/mL (≈ 0.221 to 1.1 µM) | 1 to 2.5 µg/mL (≈ 1.1 to 2.76 µM) | CC[C@H]1OC(=O)[C@H](C)[C@@H](O[C@H]2C[C@@](C)(OC)[C@@H](O)[C@H](C)O2)[C@H](C)[C@@H](O[C@@H]2O[C@H](C)C[C@H](NC)[C@H]2O)[C@](C)(O)C[C@@H](C)CN(CCCNc2ccnc3ccccc23)[C@H](C)[C@@H](O)[C@]1(C)O [Example 25, 9a-[3-(Quinolin-4-yl-amino)propyl]-3′-N-demethyl-9-deoxo-9-dihydro-9a-aza-9a-homoerythromycin A] |  |  | 
9 |  |  |  | CC[C@H]1OC(=O)[C@H](C)[C@@H](O[C@H]2C[C@@](C)(OC)[C@@H](O)[C@H](C)O2)[C@H](C)[C@@H](O[C@@H]2O[C@H](C)C[C@H](N(C)C)[C@H]2O)[C@](C)(O)C[C@@H](C)CN(CCCNCc2ccncc2)[C@H](C)[C@@H](O)[C@]1(C)O [Example 10, 9a-{3-[(Pyridine-4-yl-methyl)amino]propyl}-9-deoxo-9-dihydro-9a-aza-9a-homoerythromycin A] | C (200 < X ≦ 1000) | C (200 < X ≦ 1000) | C (200 < X ≦ 1000)
10 | 0.2 to 1 µg/mL | < 0.1 µg/mL | 0.2 to 1 µg/mL | CC[C@H]1OC(=O)[C@H](C)[C@@H](O[C@H]2C[C@@](C)(OC)[C@@H](O)[C@H](C)O2)[C@H](C)[C@@H](O[C@@H]2O[C@H](C)C[C@H](N(C)C)[C@H]2O)[C@](C)(O)C[C@@H](C)CN(CCCNC(=O)Cc2cccc3ccccc23)[C@H](C)[C@@H](O)[C@]1(C)O [Example 29, 9a-{3-[(Naphtalen-1-yl-acetyl)amino]propyl}-9a-aza-9-deoxo-9-dihydro-9a-homoerythromycin A Formiate Salt] |  |  | 
11 | 0.2 to 1 µg/mL | 0.2 to 1 µg/mL | 0.2 to 1 µg/mL | CC[C@H]1OC(=O)[C@H](C)[C@@H](O)[C@H](C)[C@@H](O[C@@H]2O[C@H](C)C[C@H](N(C)C)[C@H]2O)[C@](C)(O)C[C@@H](C)CN(CCCNC(=O)[C@H](C)c2ccc3cc(OC)ccc3c2)[C@H](C)[C@@H](O)[C@]1(C)O [Example 37, 9a-[3-({(2S)-2-[6-(methyloxy)-naphthalen-2-yl]propanoyl}amino)propyl]-3-O-decladinosyl-9a-aza-9-deoxo-9-dihydro-9a-homoerythromycin A Formiate Salt] |  |  | 
12 | 0.2 to 1 µg/mL (≈ 0.223 to 1.12 µM) | < 0.1 µg/mL | < 0.1 µg/mL | CC[C@H]1OC(=O)[C@H](C)[C@@H](O[C@H]2C[C@@](C)(OC)[C@@H](O)[C@H](C)O2)[C@H](C)[C@@H](O[C@@H]2O[C@H](C)C[C@H](N(C)C)[C@H]2O)[C@](C)(O)C[C@@H](C)CN(CCCNCCc2ccccc2)[C@H](C)[C@@H](O)[C@]1(C)O [Example 20, 9a-{3-[(2-Phenylethyl)amino]propyl}-9-deoxo-9-dihydro-9a-aza-9a-homoerythromycin A] |  |  | 
13 | 0.2 to 1 µg/mL (≈ 0.216 to 1.08 µM) | 0.1 to 0.2 µg/mL (≈ 0.108 to 0.216 µM) | 0.1 to 0.2 µg/mL (≈ 0.108 to 0.216 µM) | CC[C@H]1OC(=O)[C@H](C)[C@@H](O[C@H]2C[C@@](C)(OC)[C@@H](O)[C@H](C)O2)[C@H](C)[C@@H](O[C@@H]2O[C@H](C)C[C@H](N(C)C)[C@H]2O)[C@](C)(O)C[C@@H](C)CN(CCC(=O)NCCCc2ccccc2)[C@H](C)[C@@H](O)[C@]1(C)O [Example 40] |  |  | 
14 | < 0.1 µg/mL | < 0.1 µg/mL | < 0.1 µg/mL | CC[C@H]1OC(=O)[C@H](C)[C@@H](O[C@H]2C[C@@](C)(OC)[C@@H](O)[C@H](C)O2)[C@H](C)[C@@H](O[C@@H]2O[C@H](C)C[C@H](N(C)C)[C@H]2O)[C@](C)(O)C[C@@H](C)CN(CCCNc2ccnc3ccccc23)[C@H](C)[C@@H](O)[C@]1(C)O [Example 22, 9a-[3-(Quinolin-4-yl-amino)propyl]-9-deoxo-9-dihydro-9a-aza-9a-homoerythromycin A] |  |  | 
15 | 0.1 to 0.2 µg/mL (≈ 0.106 to 0.211 µM) | < 0.1 µg/mL | < 0.1 µg/mL | CC[C@H]1OC(=O)[C@H](C)[C@@H](O[C@H]2C[C@@](C)(OC)[C@@H](O)[C@H](C)O2)[C@H](C)[C@@H](O[C@@H]2O[C@H](C)C[C@H](N(C)C)[C@H]2O)[C@](C)(O)C[C@@H](C)CN(CCC(=O)NCc2ccc3ccccc3c2)[C@H](C)[C@@H](O)[C@]1(C)O [Example 43] |  |  | 
